pKd: −log10 of the molar value. Activity calls are given as the source filed them.

One test concerns the target Deoxycytidine kinase (Homo sapiens, UniProt P27707).
Test [1] addresses T1, Ribosyldihydronicotinamide dehydrogenase [quinone] (Homo sapiens, UniProt P16083).
T1 sequence (P16083 whole entry): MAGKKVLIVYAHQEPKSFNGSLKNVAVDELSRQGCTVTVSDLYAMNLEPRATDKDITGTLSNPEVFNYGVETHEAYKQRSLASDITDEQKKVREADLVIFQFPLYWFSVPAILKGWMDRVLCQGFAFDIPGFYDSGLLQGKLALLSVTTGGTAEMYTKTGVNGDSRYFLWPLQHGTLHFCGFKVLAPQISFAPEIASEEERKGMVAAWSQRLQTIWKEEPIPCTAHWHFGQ

The target of test [2] is T2, NUAK family SNF1-like kinase 2 (Homo sapiens, UniProt Q9H093).
T2 sequence (Q9H093 whole entry): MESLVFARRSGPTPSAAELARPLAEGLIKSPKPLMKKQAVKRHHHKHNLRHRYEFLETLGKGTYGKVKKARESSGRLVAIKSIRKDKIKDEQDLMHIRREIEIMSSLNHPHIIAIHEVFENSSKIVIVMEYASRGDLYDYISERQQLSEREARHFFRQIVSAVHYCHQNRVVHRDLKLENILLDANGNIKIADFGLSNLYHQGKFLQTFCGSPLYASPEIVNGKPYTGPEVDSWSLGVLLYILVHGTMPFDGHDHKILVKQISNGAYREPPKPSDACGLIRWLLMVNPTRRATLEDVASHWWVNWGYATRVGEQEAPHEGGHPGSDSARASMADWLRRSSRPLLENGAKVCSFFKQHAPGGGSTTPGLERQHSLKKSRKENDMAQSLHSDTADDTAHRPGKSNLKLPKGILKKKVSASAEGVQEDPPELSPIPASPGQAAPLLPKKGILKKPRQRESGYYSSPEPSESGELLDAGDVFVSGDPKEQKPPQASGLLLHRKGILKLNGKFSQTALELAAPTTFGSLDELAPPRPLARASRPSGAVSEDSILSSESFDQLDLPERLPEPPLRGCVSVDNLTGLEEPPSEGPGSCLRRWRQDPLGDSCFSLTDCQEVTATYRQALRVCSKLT

In test [3] the target is T3, Serine/threonine-protein kinase PLK4 (Homo sapiens, UniProt O00444).
T3 sequence (O00444 whole entry): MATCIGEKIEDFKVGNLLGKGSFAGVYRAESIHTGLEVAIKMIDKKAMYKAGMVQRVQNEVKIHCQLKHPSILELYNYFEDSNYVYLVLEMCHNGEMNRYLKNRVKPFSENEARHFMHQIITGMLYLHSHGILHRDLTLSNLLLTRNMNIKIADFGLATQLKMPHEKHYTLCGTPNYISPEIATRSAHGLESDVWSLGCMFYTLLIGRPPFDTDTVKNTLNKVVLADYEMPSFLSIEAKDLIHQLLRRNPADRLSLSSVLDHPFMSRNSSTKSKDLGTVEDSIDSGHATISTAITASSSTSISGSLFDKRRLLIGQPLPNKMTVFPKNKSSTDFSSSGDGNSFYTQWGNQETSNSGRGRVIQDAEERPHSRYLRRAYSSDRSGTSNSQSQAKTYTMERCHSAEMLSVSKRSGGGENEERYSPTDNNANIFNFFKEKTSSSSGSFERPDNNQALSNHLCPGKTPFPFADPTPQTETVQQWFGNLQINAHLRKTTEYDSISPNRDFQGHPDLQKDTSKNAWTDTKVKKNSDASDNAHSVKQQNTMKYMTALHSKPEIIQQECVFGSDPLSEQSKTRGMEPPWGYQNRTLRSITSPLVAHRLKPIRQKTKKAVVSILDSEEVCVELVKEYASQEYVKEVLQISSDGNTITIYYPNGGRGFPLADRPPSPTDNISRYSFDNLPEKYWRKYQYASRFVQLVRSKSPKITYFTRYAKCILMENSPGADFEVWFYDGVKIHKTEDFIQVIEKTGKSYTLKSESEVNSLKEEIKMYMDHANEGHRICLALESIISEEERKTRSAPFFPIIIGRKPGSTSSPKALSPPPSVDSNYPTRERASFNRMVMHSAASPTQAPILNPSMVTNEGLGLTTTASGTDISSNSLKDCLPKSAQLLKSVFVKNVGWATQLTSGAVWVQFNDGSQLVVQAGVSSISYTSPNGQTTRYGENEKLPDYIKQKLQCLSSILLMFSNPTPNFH

In test [4] the target is Rho-associated protein kinase 2 (Homo sapiens, UniProt O75116).
Test [5] addresses T4, Signal recognition particle receptor subunit alpha (Homo sapiens, UniProt P08240).
T4 sequence (P08240 whole entry): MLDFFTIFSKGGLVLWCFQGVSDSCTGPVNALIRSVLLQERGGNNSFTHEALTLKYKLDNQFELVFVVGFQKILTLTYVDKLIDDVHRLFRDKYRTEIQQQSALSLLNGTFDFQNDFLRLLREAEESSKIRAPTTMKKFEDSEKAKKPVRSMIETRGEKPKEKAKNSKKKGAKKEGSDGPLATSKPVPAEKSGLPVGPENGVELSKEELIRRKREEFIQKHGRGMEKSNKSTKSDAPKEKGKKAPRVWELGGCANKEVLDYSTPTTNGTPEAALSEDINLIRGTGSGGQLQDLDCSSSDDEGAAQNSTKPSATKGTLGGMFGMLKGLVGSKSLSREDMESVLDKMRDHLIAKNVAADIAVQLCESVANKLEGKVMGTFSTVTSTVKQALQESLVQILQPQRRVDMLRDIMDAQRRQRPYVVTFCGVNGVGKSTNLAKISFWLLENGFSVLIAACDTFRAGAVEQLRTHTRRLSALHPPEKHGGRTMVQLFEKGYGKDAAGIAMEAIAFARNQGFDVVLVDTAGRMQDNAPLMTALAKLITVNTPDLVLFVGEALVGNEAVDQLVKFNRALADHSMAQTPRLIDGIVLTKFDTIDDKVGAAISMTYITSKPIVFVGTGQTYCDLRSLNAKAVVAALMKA

Test [6] concerns the target Elongation factor Tu, mitochondrial (Homo sapiens, UniProt P49411).
Note: in the data inactive means no Kd found up to 30 µM.

Rho-associated protein kinase 2, sequence (O75116 whole entry): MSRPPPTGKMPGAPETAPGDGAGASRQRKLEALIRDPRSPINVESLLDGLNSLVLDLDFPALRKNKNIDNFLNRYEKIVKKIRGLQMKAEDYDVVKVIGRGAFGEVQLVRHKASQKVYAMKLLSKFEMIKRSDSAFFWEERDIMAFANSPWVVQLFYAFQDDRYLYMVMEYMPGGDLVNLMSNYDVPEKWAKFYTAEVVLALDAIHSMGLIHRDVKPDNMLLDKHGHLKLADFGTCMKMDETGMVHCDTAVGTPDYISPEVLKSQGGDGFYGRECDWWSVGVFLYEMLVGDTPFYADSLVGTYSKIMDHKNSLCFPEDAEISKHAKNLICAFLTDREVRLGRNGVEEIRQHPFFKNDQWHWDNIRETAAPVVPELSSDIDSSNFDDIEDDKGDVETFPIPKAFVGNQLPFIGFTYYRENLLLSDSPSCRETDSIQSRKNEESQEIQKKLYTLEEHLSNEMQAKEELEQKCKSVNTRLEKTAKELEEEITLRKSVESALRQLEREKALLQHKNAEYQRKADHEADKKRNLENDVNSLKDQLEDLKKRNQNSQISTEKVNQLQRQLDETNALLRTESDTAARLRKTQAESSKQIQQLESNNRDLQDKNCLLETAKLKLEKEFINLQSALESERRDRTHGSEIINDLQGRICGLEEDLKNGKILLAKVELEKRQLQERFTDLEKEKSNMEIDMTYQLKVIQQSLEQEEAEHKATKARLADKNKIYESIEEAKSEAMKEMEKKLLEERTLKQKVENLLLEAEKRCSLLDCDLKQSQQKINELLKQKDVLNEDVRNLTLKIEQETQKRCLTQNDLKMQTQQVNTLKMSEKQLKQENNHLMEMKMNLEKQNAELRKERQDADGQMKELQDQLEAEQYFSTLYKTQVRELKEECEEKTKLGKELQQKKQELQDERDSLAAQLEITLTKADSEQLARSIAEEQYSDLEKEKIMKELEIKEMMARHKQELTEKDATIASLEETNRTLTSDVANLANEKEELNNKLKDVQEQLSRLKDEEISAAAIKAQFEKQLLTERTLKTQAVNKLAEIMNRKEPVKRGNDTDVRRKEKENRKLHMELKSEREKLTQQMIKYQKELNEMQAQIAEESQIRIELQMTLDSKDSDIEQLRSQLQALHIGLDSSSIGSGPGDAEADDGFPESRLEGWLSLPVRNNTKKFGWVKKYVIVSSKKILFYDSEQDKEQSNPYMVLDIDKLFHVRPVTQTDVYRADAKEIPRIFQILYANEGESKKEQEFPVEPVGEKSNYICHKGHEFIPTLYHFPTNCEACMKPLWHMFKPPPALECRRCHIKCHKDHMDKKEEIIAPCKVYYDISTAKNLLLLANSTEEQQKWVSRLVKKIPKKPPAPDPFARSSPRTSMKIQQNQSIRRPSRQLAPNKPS
Deoxycytidine kinase, sequence (P27707 whole entry): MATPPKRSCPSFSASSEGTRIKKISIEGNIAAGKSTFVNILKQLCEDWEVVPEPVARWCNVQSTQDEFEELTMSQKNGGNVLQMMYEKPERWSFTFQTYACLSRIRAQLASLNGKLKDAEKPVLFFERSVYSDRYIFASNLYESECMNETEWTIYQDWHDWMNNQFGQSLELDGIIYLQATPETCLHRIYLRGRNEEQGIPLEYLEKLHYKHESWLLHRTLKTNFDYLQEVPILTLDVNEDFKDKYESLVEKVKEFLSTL

For the compound `COc1cc(OC)c(/C=C/S(=O)(=O)Cc2ccc(OC)c(NCC(=O)O)c2)c(OC)c1` [RIGOSERTIB], the Kd was > 30 µM (inactive) at Deoxycytidine kinase; 15.2 µM (active) in test [1]; > 30 µM (inactive) in test [2]; > 30 µM (inactive) in test [3]; > 30 µM (inactive) in test [4]; > 30 µM (inactive) in test [5]. In addition, the Kd in test [6] was > 30 µM (inactive).

As for `CC[C@H](Nc1ncnc2[nH]cnc12)c1nc2cccc(F)c2c(=O)n1-c1ccccc1` [IDELALISIB], the Kd (on Deoxycytidine kinase; in test [1]; in test [2]; in test [3]; in test [4]; in test [5]) was > 30 µM (inactive) throughout. In addition, the Kd in test [6] is > 30 µM (inactive).

Regarding `CN1N=C(N)c2cn([C@@H]3O[C@H](COP(=O)(O)O)[C@@H](O)[C@H]3O)c3ncnc1c23` [TRICIRIBINE PHOSPHATE], the Kd (on Deoxycytidine kinase; in test [1]; in test [2]; in test [3]; in test [4]; in test [5]) was > 30 µM (inactive) in each case. Also, the Kd in test [6] was > 30 µM (inactive).

As to `Cc1ccc(S(=O)(=O)Nc2nc3ccccc3nc2Nc2ccc3nsnc3c2)cc1`, the Kd (at Deoxycytidine kinase; in test [1]; in test [2]; in test [3]; in test [4]; in test [5]) was > 30 µM (inactive) each time. For the same compound, in test [6], the Kd is > 30 µM (inactive).

For the compound `CCS(=O)(=O)N1CC(CC#N)(n2cc(-c3ncnc4[nH]ccc34)cn2)C1` [BARICITINIB], the Kd at Deoxycytidine kinase is > 30 µM (inactive); in test [1] it was > 30 µM (inactive); in test [2], > 30 µM (inactive); in test [3], > 30 µM (inactive); in test [4], 0.756 µM (active); in test [5], > 30 µM (inactive). The Kd in test [6] is > 30 µM (inactive).

`Cc1ccc(NC(=O)c2ccc(CN3CC[C@H](N(C)C)C3)c(C(F)(F)F)c2)cc1Nc1nccc(-c2cncnc2)n1` [BAFETINIB]: the Kd (at Deoxycytidine kinase; in test [2]; in test [3]; in test [4]; in test [5]; in test [6]) was > 30 µM (inactive) in each case. This compound also gave a pKd in test [1] of 5.16.

For the compound `Cc1ccc(-n2nc(C(C)(C)C)cc2NC(=O)NCc2cc(F)ccc2Oc2ccc3c(cnn3CCO)c2)cc1` [PEXMETINIB], the Kd (at Deoxycytidine kinase; in test [1]; in test [2]; in test [3]; in test [4]; in test [5]) was > 30 µM (inactive) in each case. In addition, the Kd in test [6] is > 30 µM (inactive).

For the compound `CNS(=O)(=O)Nc1nccc(Cc2c(C)c3ccc(Oc4ncccn4)cc3oc2=O)c1F` [AVUTOMETINIB], the Kd (at Deoxycytidine kinase; in test [1]; in test [2]; in test [3]; in test [4]; in test [5]) was > 30 µM (inactive) each time. For the same compound, the Kd in test [6] is > 30 µM (inactive).

In the case of `COc1ccc(-c2ccc3c(N4CCOC[C@@H]4C)nc(N4CCOC[C@@H]4C)nc3n2)cc1CO` [AZD-8055], the Kd (at Deoxycytidine kinase; in test [1]; in test [2]; in test [3]; in test [4]; in test [5]) was > 30 µM (inactive) each time. The Kd in test [6] is > 30 µM (inactive).

For the compound `O=C(O)[C@]1(Cc2cccc(Nc3nccs3)n2)CC[C@@H](Oc2cccc(Cl)c2F)CC1` [MK-5108], the Kd at Deoxycytidine kinase is > 30 µM (inactive); in test [1], > 30 µM (inactive); in test [2], > 30 µM (inactive); in test [3], 0.183 µM (active); in test [4] it was > 30 µM (inactive); in test [5], > 30 µM (inactive). The Kd in test [6] is > 30 µM (inactive).

The record behind these values is ChEMBL document CHEMBL3991601, “The target landscape of clinical kinase drugs” (Science, 2017).
